One may read the inhibition as the drop in the measured response relative to a control, in per cent.

Structures are written as SMILES.

From patent US11000587B2, “Use as immune enhancer or pharmaceutical composition for treatment of dementia, comprising phytosphingosine-1-phosphate or derivative thereof” (AXCESO BIOPHARMA CO., LTD., priority 2016, dated 2021) come the findings set out here.

One test has as its system IL-4. As to the kind of experiment: Th2 cytokine (IL-4) from splenocytes of inoculated mice re-stimulated with Aβ antigen. It is filed as in vivo. Particulars: for IL-4: splenocytes of vaccinated mice, re-stimulated with Aβ antigen 72 hours. Here is the method: (§1) The mice were inoculated with the vaccines prepared as described above. 6-week-old Balb/c mice were used in the experiment, and there were 4 mice per group. The mice were injected intramuscularly with the vaccines prepared containing PBS, Alum, S1P (EB101), P1P, cyclic P1P, and NAPS-1-P as described above. […] The vaccine candidates were inoculated twice at an interval of 3 weeks. PBS was used as a negative control without Aβ antigen, and S1P and Alum were used as control. Alum is an adjuvant used in vaccines and is known to induce a Th2 immune response, and thus was used as a positive control for the Th2 response, and S1P was used as a control for comparison of antibody producing-ability.
(§2) The spleen was removed from the mice inoculated as described above to obtain splenocytes. Red blood cells were lysed with 100 mM Tris buffer. The obtained splenocytes were washed twice with PBS and centrifuged at 1600 rpm for 5 minutes. […] The splenocytes thus obtained were re-stimulated with a constant amount of Aβ antigen for 72 hours.
(§3) Subsequently, Th1 cytokine (TNF-α) and Th2 cytokine (IL-4) secreted from the mouse splenocytes were subjected to an ELISpot assay using an ELISPOT (BD Pharmingen) kit according to the manufacturer's instructions. The number of colored spots was measured to compare the number of cytokine-secreting cells.

The subject of test [1] is Aβ antigen. The test is described as follows: IgG isotyping (IgG1, IgG2a, IgG2b titer) in vaccinated mice. It is filed as in vivo, Balb/c mice. Particulars: blood collected at 4th week after the second vaccination. How it is done:
as §1
In the fourth week, which was the last week, about 300 to 400 μl of blood was collected from the heart, and the serum components were separated by centrifugation at 1400 rpm for 10 minutes at room temperature. The antibody-forming ability in the serum was determined as follows:
The IgG isotyping was measured in the same manner as the total IgG measurement except that the following antibodies were used as secondary antibodies. For IgG1, IgG2a and IgG2b, anti-mouse IgG1, IgG2a or IgG2b conjugated to horseradish peroxidase (Boehringer Mannheim) were used.

The subject of a further test is Raw264.7 cells. As to the kind of experiment: TNF-α production in LPS-stimulated macrophages (ELISA). It is filed as cell-based, mouse. Particulars: LPS 1 ng/mL; for Amount of TNF-α / inhibition at 0.01 µM / inhibition at 0.1 µM / inhibition at 0.5 µM / inhibition at 1 µM: 4 hours; for inhibition at 0.01 µM / inhibition at 0.1 µM / inhibition at 0.5 µM / inhibition at 1 µM: Mus musculus, RAW264.7, 4 h, read-out: Inhibition rate of TNF-α production. Here is the method:
Raw264.7 cells, which is a mouse macrophage cell line (Korean Cell Line Bank, cultured with RPMI 1640/10% fetal bovine serum) were seeded at 4.5×10^5/mL and cultured overnight, and then, treated with LPS (lipopolysaccharide) (1 ng/mL), and S1P and P1P diluted with a culture medium according to the concentrations ([…]). After culturing at 37° C. in a 5% CO2 incubator for 4 hours, the supernatant was collected and stored at 4° C. The concentration of TNF-α, an inflammatory cytokine secreted in the supernatant, was measured using an ELISA kit (BD OptEIA™ TNF Mouse set) according to the manufacturer's instructions. The culture medium was diluted by ¼ in all experimental groups except for the treated group, and the concentration was measured.
On the technique in general: An ELISA detects its analyte on a solid surface through an enzyme-linked reagent.

For a further test, the system named is TNF-α. The test is described as follows: Th1 cytokine (TNF-α) from splenocytes of inoculated mice re-stimulated with Aβ antigen. The format is in vivo. The settings on record: for TNF-α: splenocytes of vaccinated mice, re-stimulated with Aβ antigen 72 hours. How it is done:
as §1, §2, §3

The test system of test [2] is Aβ antigen. As to the kind of experiment: Antibody-forming ability in vaccinated mice, total IgG titer (ELISA). The format is in vivo, Balb/c mice. The settings on record: vaccine with Aβ antigen, intramuscular. Here is the method:
as §1
The antibody-forming ability in the serum was determined as follows:
A 96-well plate was coated with Aβ antigen (1 μg/mL) and reacted at room temperature overnight. Then, the solution in each well was removed and blocked with albumin. The primary antibody (the immune serum) was subjected to 2-fold dilution with the following composition solution (0.014 M sodium phosphate, pH 7.4, 0.15 M NaCl, 0.6% albumin, 0.05% thimerosal) and added to each well. After reacting at room temperature for about 1 hour, the antibodies were washed 5 times with PBS containing 0.05% Tween 20. Subsequently, a secondary antibody conjugated to horseradish peroxidase (goat mouse IgG conjugated to horseradish peroxidase, Boehringer Mannheim) was added and reacted at room temperature for 1 hour. After washing 5 times with PBS containing Tween, 100 μL of 3,3,5,5-tetramethyl benzidine (from Pierce Chemicals) was added for color development, and reacted at room temperature for 15 minutes. The color development reaction was terminated by adding sulfuric acid.

For another test, the system named is PC12 cell. The test is described as follows: Protection against neuronal cell death induced by hydrogen peroxide (oxidative stress), Ez-Cytox viability. It is filed as cell-based, Mouse. The settings on record: 100 nM, 350 μM hydrogen peroxide (about 90% of nerve cells killed without treatment). Here is the method: PC12 cell line (KCLB 21721, Korea Cell Line Bank, Seoul, Korea) was used to test the effect of P1P and the antibodies on the neuronal cell death caused by hydrogen peroxide and Aβ. The PC12 cells were cultured in RPMI 1640 medium containing 10% fetal bovine serum and 1% penicillin/streptomycin at 37° C. in a 5% CO2 incubator.
After culturing the cells for 24 hours, P1P, cyclic P1P and NAPS-1-P dissolved in DMSO to a concentration of 2 mM were diluted and added to the medium such that the concentrations were 10 nM, 100 nM and 1000 nM. After culturing for 1 hour, 350 μM of H2O2 was added to […] and cultured. Subsequently, in order to measure cell viability, the absorbance was measured at 450 nm using Ez-Cytox (Dogen) after 6 hours, and the efficacy of P1P and derivatives thereof against oxidative stress was measured. The cell death induced by Aβ was initiated by treating 10 μM of Aβ instead of 350 μM of hydrogen peroxide, and the efficacy of P1P and the antibodies against the cell death induced by Aβ was measured using Ez-Cytox after 24 hours.

[3] abbreviates: 2 weeks after secondary inoculation.
Where [4] appears, read: 3 weeks after primary inoculation.
The mark [5] stands for this setting: 4 weeks after secondary inoculation.

`CCCCCCCCCCCCC/C=C/[C@@H](O)[C@@H](N)COP(=O)(O)O` [S1P, sphingosine-1-phosphate]: the “increase in IL-4, statistical significance” value in the test with IL-4 (splenocytes of immunized mice) is reported as “statistically significant increase”. This compound had an IL-4 in the test with IL-4 of 11.84 ± 2.25 pg/mL. In the test on Aβ antigen [1], the “IgG1 Average Antibody Titer” value was determined as 1200 ± 430. The “IgG2a Average Antibody Titer” value in the test on Aβ antigen [1] was determined as 0. In addition, the “IgG2b Average Antibody Titer” value in the test on Aβ antigen [1] was determined as 0. Moreover, in the test with Raw264.7 cells, the “secretion of TNF-α, trend with concentration” value was “tended to decrease slightly in a concentration-dependent manner”. The “Amount of TNF-α” value was found to be 15000 pg/mL in the test with Raw264.7 cells (10 nM), 13880 pg/mL in the test on Raw264.7 cells (100 nM), 12700 pg/mL in the test with Raw264.7 cells (500 nM) and 116600 pg/mL in the test with Raw264.7 cells (1000 nM). The inhibition at 0.01 µM in the test on Raw264.7 cells (10 nM) was -4.2%. Moreover, in the test on Raw264.7 cells (100 nM), the inhibition at 0.1 µM was -4.2%. For the same compound, the inhibition at 0.5 µM with Raw264.7 cells (500 nM) is 11.8%. In the test with Raw264.7 cells (1000 nM), the inhibition at 1 µM is about 19%. Besides, the “increase in TNF-α, statistical significance” value in the test with TNF-α (splenocytes of immunized mice) is on record as “did not show a statistically significant increase”. Moreover, the TNF-α in the test with TNF-α turned out to be 36.25 ± 20.15 pg/mL. The “Average Antibody Titer” value with Aβ antigen [2] (setting [3]) is recorded as 4000 ± 1500; in the test on Aβ antigen [2] (setting [4]), 140 ± 80; in the test on Aβ antigen [2] (setting [5]), 4800 ± 2000; with Aβ antigen [2] (Before inoculation) it was 0.
Turning to `CCCCCCCCCCCCCC[C@@H](O)[C@H]1OP(=O)(O)OC[C@@H]1N` [CP1P, O-cyclic P1P], the “neuronal cell death induced by hydrogen peroxide” value in the test with PC12 cell is reported as “the nerve cells were not killed”. In the test with IL-4, this compound had an IL-4 of 12.06 ± 1.25 pg/mL. Besides, in the test with Aβ antigen [1], the “IgG1 Average Antibody Titer” value is on record as 6100 ± 2100. The “IgG2a Average Antibody Titer” value in the test with Aβ antigen [1] was found to be 0. In addition, the “IgG2b Average Antibody Titer” value in the test with Aβ antigen [1] is 0. Further, the “Amount of TNF-α” value in the test with Raw264.7 cells (10 nM) stood at 10600 pg/mL; in the test on Raw264.7 cells (100 nM) it was 7800 pg/mL; in the test on Raw264.7 cells (500 nM), 7500 pg/mL; in the test on Raw264.7 cells (1000 nM), 7550 pg/mL. Also, the inhibition at 0.01 µM in the test on Raw264.7 cells (10 nM) stood at 26.3%. The inhibition at 0.1 µM with Raw264.7 cells (100 nM) came out at 26.3%. In addition, the inhibition at 0.5 µM in the test with Raw264.7 cells (500 nM) turned out to be 47.9%. The inhibition at 1 µM in the test with Raw264.7 cells (1000 nM) came to 47.5%. This compound showed a TNF-α with TNF-α of 42.9 ± 15.52 pg/mL. Besides, the “Average Antibody Titer” value in the test on Aβ antigen [2] (setting [3]) was found to be 11000 ± 2500; with Aβ antigen [2] (setting [4]), 140 ± 50; in the test on Aβ antigen [2] (setting [5]), 9000 ± 2000; in the test on Aβ antigen [2] (Before inoculation), 0.
With `CCCCCCCCCCCCCC[C@@H](O)[C@@H](O)[C@H](COP(=O)(O)O)NC(C)=O` [NAPS-1-P, N-acetyl phytosphingosine-1-phosphate], in the test with PC12 cell, the “neuronal cell death induced by hydrogen peroxide” value is recorded as “the nerve cells were not killed”. The compound also showed an IL-4 in the test on IL-4 of 11.04 ± 0.78 pg/mL. For the same compound, in the test with Aβ antigen [1], the “IgG1 Average Antibody Titer” value is given as 1700 ± 600, the “IgG2a Average Antibody Titer” value is given as 0 and the “IgG2b Average Antibody Titer” value is on record as 0. In the test with Raw264.7 cells (10 nM), the “Amount of TNF-α” value worked out at 15000 pg/mL and the inhibition at 0.01 µM was -4.2%. Moreover, in the test with Raw264.7 cells (100 nM), the “Amount of TNF-α” value is 15200 pg/mL and the inhibition at 0.1 µM is -4.2%. Also, in the test on Raw264.7 cells (500 nM), the “Amount of TNF-α” value turned out to be 12200 pg/mL and the inhibition at 0.5 µM came out at 15.3%. Further, in the test on Raw264.7 cells (1000 nM), the “Amount of TNF-α” value is 10000 pg/mL and the inhibition at 1 µM amounted to 30.6%. Further, the TNF-α in the test with TNF-α is 40.4 ± 15.52 pg/mL. Further, the “Average Antibody Titer” value in the test with Aβ antigen [2] (setting [3]) is on record as 5600 ± 2000. The “Average Antibody Titer” value with Aβ antigen [2] (setting [4]) stood at 84 ± 50. The “Average Antibody Titer” value in the test on Aβ antigen [2] (setting [5]) was 5600 ± 2000.
